Laboratory results from patent publication US10668134B2, “Dental pretreatment material and dental tissue regeneration kit” (National Center for Geriatrics and Gerontology, priority 2016, dated 2020).

Columns and labels:
[1] = system: post-pulpectomy root canal of a tooth of the canine; assay: Dental pulp regeneration after pulpectomy, allogeneic transplantation of dental pulp stem cells with root canal filler containing ALK5 inhibitor or CCR3 antagonist; type: in vivo, dog
Description: For each tooth, the root canal was enlarged with #50-55 to the apex, and was washed alternately with a 5% sodium hypochlorite solution and a 3% hydrogen peroxide solution, followed by washing with physiologic saline. The root canal was completely dried with paper points, and hemorrhage was controlled. The root canal was completely closed with a temporary seal of cement and resin. After 7 to 14 days following the pulpectomy, the temporary seal was removed, and the root canal underwent alternate washing and with physiologic saline. Smearclean was then allowed to react for 2 minutes. The root canal was then further washed with physiologic saline, and dried. A root canal filler was prepared by suspending 1×10^6 allogenic dental pulp stem cells, which had been membrane-separated, in 40 μl of a scaffold (Koken Atelocollagen Implant, KOKEN CO., LTD.), and by suspending 3 μl of a 100 μg/ml G-CSF (NEUTROGIN, Chugai Pharmaceutical Co., Ltd.). Further, an ALK5 inhibitor (SB431542, 200 ng) was added to part of the root canal filler. A CCR3 antagonist (SB328437, 200 ng) was added to another part of the root canal filler. The root canal filler with the ALK5 inhibitor or the CCR3 antagonist was injected into associated root canal such that no air bubbles were involved. A hemostatic gelatin sponge (Spongel) was put on the root canal filler. The cavity was completely sealed with cement and resin. After 14 days and 60 days following the transplantation, the teeth were extracted. According to a common method, 5 μm paraffin sections of longitudinal cross section were prepared. The paraffin sections were then H-E stained to undergo morphological observation. Amounts of regenerated dental pulp of four sections were measured for each sample, and an average amount of three samples (14-day samples) or an average amount of four samples (60-day samples) was determined to be the amount of regenerated dental pulp of the respective sample. To analyze angiogenesis, the 60-day samples were immunostained with BS-1 lectin. To analyze neurite outgrowth, the 60-day samples were immunostained with PGP 9.5.

[2] = system: Eleventh-passage human periodontal ligament cells; assay: Trophic factor expression in senescent cells of human periodontal membrane (real-time RT-PCR); type: cell-based; details: control = 1
Protocol: Eleventh-passage human periodontal ligament cells were plated in DMEM containing 10% FBS in collagen-coated 35 mm dishes (IWAKI) at a density of 2×10^4 cells/ml. After 20 hours, ALK5 inhibitor (SB431542) was added to final concentrations of 5 ng/μl and 10 ng/μl. Further, CCR3 antagonist (SB328437) was added to final concentrations of 5 ng/μl and 10 ng/μl. After 48 hours, mRNA was extracted, and real-time RT-PCR was performed on senescence markers, namely p16, p53, IL6, IL1b, IL8, and TNFα (Table 4).
Real-time RT-PCR was performed on trophic factors, namely, VEGF, BDNF, NGF, MCP1 (Table below) using mRNA similar to that described in 2 above.

[3] = system: Fifth-passage human periodontal membrane cells; assay: mRNA expression of CCL11, CCR3 and GDF11 in human periodontal membrane cells (real-time RT-PCR); type: cell-based; details: 5, 10 and 30 ng/μl added; after 32 hours
Protocol: Fifth-passage human periodontal membrane cells were plated in a DMEM containing 10% FBS in collagen-coated 35 mm dishes (IWAKI) at a density of 2×10^4 cells/ml. After 9 hours, an ALK5 inhibitor (SB431542) was added to final concentrations of 5 ng/μl, 10 ng/μl, and 30 ng/μl. Further, a CCR3 antagonist (SB328437) was added to final concentrations of 5 ng/μl, 10 ng/μl, and 30 ng/μl. After 32 hours, mRNA was extracted, and real-time RT-PCR was performed on CCL11, CCR3, and GDF11.

[4] = system: Eleventh-passage human periodontal membrane cells; assay: Migratory capacity of senescent cells of human periodontal membrane (TAXIscan-FL, SDF1 gradient); type: cell-based; details: 48 hours, n=4, control 53.8 ± 4.6
Protocol: Eleventh-passage human periodontal membrane cells were plated in DMEM containing 10% FBS in collagen-coated 35 mm dishes (IWAKI) at a density of 2×10^4 cells/ml. After 20 hours, an ALK5 inhibitor (SB431542) was added to a final concentration of 10 ng/μl. Further, a CCR3 antagonist (SB328437) was added to a final concentration of 5 ng/μl. After 48 hours, the cells were detached, and Real-time horizontal chemotaxis analysis was performed using TAXIscan-FL (Effector Cell Institute, Tokyo) so as to measure the migratory capacity. Specifically, channels optimized (8 μm) for the size of cells are formed between a silicon plate having 6 μm pores and a glass plate, and 1 μl of treated periodontal membrane cells (10^5 cells/ml) was injected to one end portion of an associated one of the channels (n=4). Then, 1 μl of 10 ng/μl SDF1 was placed on the opposite side portion so as to form a certain constant concentration gradient. Based on the video images of migration, the number of migrating cells after 12 hours was measured.

[5] = system: post-pulpectomy root canal of a tooth of the canine of middle or advanced age; assay: Dental pulp regeneration after trypsin pretreatment plus root canal filler containing CCR3 antagonist; type: in vivo, dog; details: pretreatment with trypsin (50 μg/ml with nanobubble liquid, 10 minutes) then filler with 200 ng; after 14 days; vs no pretreatment
Protocol: After 7 to 14 days following a pulpectomy treatment, the treated root canal underwent alternate washing, and then, washing with physiologic saline. Smear clean was then allowed to react for 2 minutes. The root canal was then further washed with physiologic saline, and dried. Further, FRANCETIN⋅T⋅POWDER (2,500 USP of crystalized trypsin per 10 mg) (MOCHIDA PHARMACEUTICAL CO., LTD.) was mixed with a nanobubble liquid into a 50 μg/ml (0.05%) solution. The solution was allowed to react for 10 minutes. The root canal was washed with physiologic saline, and dried. In the same manner as in Example 3, a root canal filler was prepared by suspending 1×10^6 allogeneic dental pulp stem cells, which had been membrane-isolated, in 40 μl of a scaffold (Koken Atelocollagen Implant), and by suspending 3 μl of a 100 μg/ml G-CSF (NEUTROGIN). Further a CCR3 antagonist (SB328437, 200 ng) was added to the root canal filler. The root canal filler was injected into the post-pulpectomy root canal. After 14 days following the transplantation, the tooth was extracted, and 5 μm paraffin sections were prepared. The paraffin sections were then H-E stained to undergo morphological observation.

[6] = canine of middle or advanced age, 200 ng in root canal filler, after 14 days, vs filler without
[7] = canine of middle or advanced age, 200 ng in root canal filler, after 60 days, vs filler without
[8] = canine of middle or advanced age, 200 ng, after 60 days

SMILES	amount of regenerated dental pulp tissue [1, 6]	amount of regenerated dental pulp tissue [1, 7]	density of angiogenesis (BS-1 lectin) [1, 8]	BDNF trophic factor expression ([2]; 5 ng/μl)	MCP1 trophic factor expression ([2]; 5 ng/μl)	NGF trophic factor expression ([2]; 5 ng/μl)	VEGF trophic factor expression ([2]; 5 ng/μl)	BDNF trophic factor expression ([2]; 10 ng/μl)	MCP1 trophic factor expression ([2]; 10 ng/μl)	NGF trophic factor expression ([2]; 10 ng/μl)	VEGF trophic factor expression ([2]; 10 ng/μl)	increase of expression of GDF11 mRNA [3] [times]	mRNA expression of CCL11 [3]	number of migrating cells after 12 hours, Average ± SD ([4]; final concentration 10 ng/μl)	amount of regenerated dental pulp tissue [5]	neurite outgrowth (PGP 9.5) [1, 8]	amount of regenerated dental pulp tissue ([1]; canine of young age, 200 ng, after 14 days)	mRNA expression of CCR3 [3]	number of migrating cells after 12 hours, Average ± SD ([4]; final concentration 5 ng/μl)
NC(=O)c1ccc(-c2nc(-c3ccc4c(c3)OCO4)c(-c3ccccn3)[nH]2)cc1 [ALK5 inhibitor, SB431542]	significant increase	significant increase	significant increase	0.44	1.08	0.58	0.96	0.47	0.96	0.44	1.25	5	completely suppressed	21.3 ± 10.9					
COC(=O)[C@H](Cc1ccc([N+](=O)[O-])cc1)NC(=O)c1cccc2ccccc12 [CCR3 antagonist, SB328437]	significant increase	significant increase		0.33	2.35	0.50	0.92	0.43	0.54	0.58	0.70		completely suppressed		significant increase	significant increase	did not cause any significant increase	completely suppressed	23.3 ± 10.7
